Experimental data from ChEMBL document CHEMBL1154443, “In vivo studies of 5-arylethenylbenzofuroxans in acute murine models of Chagas' disease” (Eur J Med Chem, 2008).
The source made the active and inactive calls. The calls are words filed in the database; no cut-off is given here.

How the values were obtained:
[1] = system: Mus musculus; assay: Toxicity against Trypanosoma cruzi infected CD1 mouse assessed as effect on liver histology at 300 mg/kg, ip; format: organism-based; design: dose 300 mg/kg, route intraperitoneal; settings: in vivo
[2] = system: Trypanosoma cruzi; assay: Antitrypanosomal activity against Trypanosoma cruzi Argentinian isolate infected Swiss mouse assessed as inhibition of skeletal muscle amastigote nests at 60 mg/kg/day, po; format: functional, organism-based; settings: Muscle tissue
[3] = system: Mus musculus; assay: Toxicity against Trypanosoma cruzi infected CD1 mouse assessed as effect on liver histology at 450 mg/kg, po; format: organism-based; design: dose 450 mg/kg, route oral; settings: in vivo
[4] = system: Trypanosoma cruzi; assay: Antitrypanosomal activity against Trypanosoma cruzi Argentinian isolate infected Swiss mouse assessed as prevention of heart inflammatory infiltrates at 60 mg/kg/day, po; format: functional, organism-based
[5] = system: Trypanosoma cruzi; assay: Antitrypanosomal activity against Trypanosoma cruzi Argentinian isolate infected Swiss mouse assessed as prevention of skeletal muscle inflammatory infiltrates at 60 mg/kg/day, po; format: functional, organism-based; settings: Muscle tissue
[6] = system: Trypanosoma cruzi; assay: Antitrypanosomal activity against Trypanosoma cruzi Argentinian isolate infected Swiss mouse assessed as prevention of liver congestion at 60 mg/kg/day, po; format: functional, organism-based
[7] = system: Mus musculus; assay: Toxicity against Trypanosoma cruzi infected CD1 mouse assessed as effect on kidney histology at 300 mg/kg, ip; format: organism-based; design: dose 300 mg/kg, route intraperitoneal; settings: in vivo
[8] = system: Mus musculus; assay: Toxicity against Trypanosoma cruzi infected CD1 mouse assessed as effect on kidney histology at 450 mg/kg, po; format: organism-based; design: dose 450 mg/kg, route oral; settings: in vivo
[9] = system: Mus musculus; assay: Toxicity against Trypanosoma cruzi infected CD1 mouse assessed as effect on heart histology at 300 mg/kg, ip; format: organism-based; design: dose 300 mg/kg, route intraperitoneal; settings: in vivo
[10] = system: Mus musculus; assay: Toxicity against Trypanosoma cruzi infected CD1 mouse assessed as effect on heart histology at 450 mg/kg, po; format: organism-based; design: dose 450 mg/kg, route oral; settings: in vivo
[11] = system: Trypanosoma cruzi; assay: Antitrypanosomal activity against Trypanosoma cruzi Argentinian isolate infected Swiss mouse assessed as inhibition of heart amastigote nests at 60 mg/kg/day, po; format: functional, organism-based
[12] = system: Trypanosoma cruzi; assay: Antitrypanosomal activity against Trypanosoma cruzi Uruguayan isolate infected CD1 mouse assessed as suppression of parasitemia at 60 mg/kg/day, po after 17 day postinfection; format: functional, organism-based
[13] = system: Trypanosoma cruzi; assay: Antitrypanosomal activity against Trypanosoma cruzi Colombiana infected Swiss mouse assessed as reduction in circulating trypomastigotes antibody level at 120 mg/kg/day, po after 44 days postinfection; format: functional, organism-based
[14] = system: Trypanosoma cruzi; assay: Antitrypanosomal activity against Trypanosoma cruzi Colombiana infected Swiss mouse assessed as prevention of liver congestion at 120 mg/kg/day, po; format: functional, organism-based
[15] = system: Trypanosoma cruzi; assay: Antitrypanosomal activity against Trypanosoma cruzi Colombiana infected Swiss mouse assessed as prevention of heart inflammatory infiltrates at 120 mg/kg/day, po; format: functional, organism-based
[16] = system: Trypanosoma cruzi; assay: Antitrypanosomal activity against Trypanosoma cruzi Tulahuen 2 infected Swiss mouse assessed as prevention of heart inflammatory infiltrates at 120 mg/kg/day, po; format: functional, organism-based
[17] = system: Trypanosoma cruzi; assay: Antitrypanosomal activity against Trypanosoma cruzi Colombiana infected Swiss mouse assessed as reduction in circulating trypomastigotes antibody level at 120 mg/kg/day, po after 90 days postinfection; format: functional, organism-based
[18] = system: Trypanosoma cruzi; assay: Antitrypanosomal activity against Trypanosoma cruzi Tulahuen 2 infected Swiss mouse assessed as prevention of liver congestion at 120 mg/kg/day, po; format: functional, organism-based
[19] = system: Trypanosoma cruzi; assay: Antitrypanosomal activity against Trypanosoma cruzi Tulahuen 2 infected Swiss mouse assessed as prevention of muscle inflammatory infiltrates at 120 mg/kg/day, po; format: functional, organism-based; settings: Muscle tissue
[20] = system: Trypanosoma cruzi; assay: Antitrypanosomal activity against Trypanosoma cruzi Tulahuen 2 infected Swiss mouse assessed as suppression of parasitemia at 120 mg/kg/day, po; format: functional, organism-based
[21] = system: Trypanosoma cruzi; assay: Antitrypanosomal activity against Trypanosoma cruzi Tulahuen 2 infected Swiss mouse assessed as suppression of parasitemia at 60 mg/kg/day, po; format: functional, organism-based
[22] = system: Trypanosoma cruzi; assay: Antitrypanosomal activity against Trypanosoma cruzi Colombiana infected Swiss mouse assessed as prevention of skeletal muscle inflammatory infiltrates at 120 mg/kg/day, po; format: functional, organism-based; settings: Muscle tissue
[23] = Toxicity against Trypanosoma cruzi Tulahuen 2 infected Swiss mouse assessed as mouse survival at 120 mg/kg/day, po after 25 days; format: organism-based; design: route oral; settings: in vivo, read-out: Activity
[24] = Toxicity against Trypanosoma cruzi Colombiana infected Swiss mouse assessed as mouse survival at 120 mg/kg/day, po after 25 days; format: organism-based; design: route oral; settings: in vivo, read-out: Activity
[25] = system: Trypanosoma cruzi; assay: Antitrypanosomal activity against Trypanosoma cruzi Argentinian isolate infected Swiss mouse assessed as suppression of parasitemia at 60 mg/kg/day, po; format: functional, organism-based
[26] = system: Trypanosoma cruzi; assay: Antitrypanosomal activity against Trypanosoma cruzi Tulahuen 2 infected Swiss mouse assessed as reduction in circulating trypomastigotes antibody level at 120 mg/kg/day, po after 90 days postinfection; format: functional, organism-based
[27] = system: Trypanosoma cruzi; assay: Antitrypanosomal activity against Trypanosoma cruzi Tulahuen 2 infected Swiss mouse assessed as reduction in circulating trypomastigotes antibody level at 120 mg/kg/day, po after 60 days postinfection; format: functional, organism-based
[28] = system: Trypanosoma cruzi; assay: Antitrypanosomal activity against Trypanosoma cruzi Tulahuen 2 infected Swiss mouse assessed as reduction in circulating trypomastigotes antibody level at 200 mg/kg/day, po after 90 days postinfection; format: functional, organism-based
[29] = system: Trypanosoma cruzi; assay: Antitrypanosomal activity against Trypanosoma cruzi Tulahuen 2 infected Swiss mouse assessed as prevention of liver congestion at 200 mg/kg/day, po; format: functional, organism-based
[30] = system: Trypanosoma cruzi; assay: Antitrypanosomal activity against Trypanosoma cruzi Tulahuen 2 infected Swiss mouse assessed as prevention of heart inflammatory infiltrates at 200 mg/kg/day, po; format: functional, organism-based
[31] = system: Trypanosoma cruzi; assay: Antitrypanosomal activity against Trypanosoma cruzi Tulahuen 2 infected Swiss mouse assessed as prevention of muscle inflammatory infiltrates at 200 mg/kg/day, po; format: functional, organism-based; settings: Muscle tissue
[32] = system: Trypanosoma cruzi; assay: Antitrypanosomal activity against Trypanosoma cruzi Tulahuen 2 infected Swiss mouse assessed as reduction in circulating trypomastigotes antibody level at 200 mg/kg/day, po after 60 days postinfection; format: functional, organism-based

| SMILES | Activity [1] | Activity [2] | Activity [3] | Activity [4] | Activity [5] | Activity [6] | Activity [7] | Activity [8] | Activity [9] | Activity [10] | Activity [11] | Activity [13] | Activity [14] | Activity [15] | Activity [16] | Activity [18] | Activity [19] | Activity [22] | survival at 600 h [23] [%] | survival at 600 h [24] [%] | also measured |
| --- | --- | --- | --- | --- | --- | --- | --- | --- | --- | --- | --- | --- | --- | --- | --- | --- | --- | --- | --- | --- | --- |
| CC1CS(=O)(=O)CCN1/N=C/c1ccc([N+](=O)[O-])o1 (configuration not stated) [NIFURTIMOX] | Toxic | Active | Toxic | Active | Active | Active | Non-toxic | Toxic | Non-toxic | Non-toxic | Active | – | – | – | – | – | – | – | – | – | – |
| [O-][n+]1onc2ccc(/C=C/c3ccccc3)cc21 | Non-toxic | Active | Non-toxic | Active | Active | Active | Non-toxic | Non-toxic | Non-toxic | Non-toxic | Active | inactive | Active | Active | Active | Active | Active | Active | 100 | 100 | Activity [12]: Active; Activity [17]: Active; Activity [20]: Active; Activity [21]: Active; Activity [25]: Active |
| [O-][n+]1onc2ccc(/C=C\c3ccc4c(c3)OCO4)cc21 | – | – | – | – | – | – | – | – | – | – | – | inactive | Active | Active | Active | Active | Active | Active | 100 | 100 | Activity [17]: Active |
| [O-][n+]1onc2ccc(/C=C/c3ccc4c(c3)OCO4)cc21 | – | – | – | – | – | – | – | – | – | – | – | inactive | Active | Active | Active | Active | Active | Active | 100 | 100 | Activity [26]: Active; Activity [27]: Active |
| O=C(Cn1ccnc1[N+](=O)[O-])NCc1ccccc1 [BENZNIDAZOLE] | – | – | – | – | – | – | – | – | – | – | – | Active | Active | Active | – | – | – | Active | – | 100 | Activity [28]: Active; Activity [29]: Active; Activity [30]: Active; Activity [31]: Active; Activity [32]: Active |
